Results taken from the NIST ThermoML archive (doi:10.1021/je049776w).

How the values were obtained:
[1] = 101.3 kPa, Liquid
[2] = xn = mol fraction of the nth substance listed; details: 101.3 kPa, Liquid

C1CCCCC1 [cyclohexane]
[1]
Details | mass density [kg/m3] | viscosity [mPa·s]
298.15 K | 773.82 | 0.9027
303.15 K | 769.1 | 0.8205
313.15 K | 759.61 | 0.6963
323.15 K | 749.98 | 0.5984
333.15 K | 740.23 | 0.5195

CN1CCCC1=O [N-methylpyrrolidone] + Cc1ccc(C)cc1
[2], x2 = 0
Details | mass density [kg/m3] | viscosity [mPa·s]
303.15 K | 1023.47 | 1.554
313.15 K | 1014.55 | 1.332
323.15 K | 1005.66 | 1.16
333.15 K | 996.71 | 1.022
343.15 K | 987.75 | 0.9084
353.15 K | 978.76 | 0.8127

Cc1ccc(C)cc1 [1,4-dimethylbenzene]
[1]
Details | mass density [kg/m3] | viscosity [mPa·s]
298.15 K | 856.7 | 0.6162
303.15 K | 852.35 | 0.5715
313.15 K | 843.64 | 0.508
323.15 K | 834.9 | 0.4599
333.15 K | 826.09 | 0.4298
343.15 K | 817.17 | 0.3783
353.15 K | 808.22 | 0.3382

Cc1ccc(C)cc1 [1,4-dimethylbenzene] + C1CCCCC1
[2]
Details | mass density, 298.15 K [kg/m3] | mass density, 303.15 K [kg/m3] | mass density, 313.15 K [kg/m3] | mass density, 323.15 K [kg/m3] | mass density, 333.15 K [kg/m3] | viscosity, 298.15 K [mPa·s] | viscosity, 303.15 K [mPa·s] | viscosity, 313.15 K [mPa·s] | viscosity, 323.15 K [mPa·s] | viscosity, 333.15 K [mPa·s]
x1 = 0.0809 | 779.58 | 774.92 | 765.5 | 755.99 | 746.36 | 0.8232 | 0.7475 | 0.6401 | 0.5594 | 0.4874
x1 = 0.1655 | 786.02 | 781.39 | 772.07 | 762.67 | 753.14 | 0.757 | 0.6992 | 0.5981 | 0.526 | 0.4646
x1 = 0.2537 | 792.96 | 788.36 | 779.14 | 769.83 | 760.42 | 0.7177 | 0.6524 | 0.5739 | 0.5037 | 0.452
x1 = 0.3457 | 800.58 | 796.02 | 786.88 | 777.65 | 768.33 | 0.6773 | 0.6311 | 0.5481 | 0.4861 | 0.4338
x1 = 0.4422 | 808.68 | 804.15 | 795.1 | 785.98 | 776.74 | 0.6575 | 0.6059 | 0.5313 | 0.4722 | 0.423
x1 = 0.5431 | 817.38 | 812.89 | 803.91 | 794.86 | 785.72 | 0.6326 | 0.5868 | 0.5185 | 0.4638 | 0.4186
x1 = 0.6491 | 826.54 | 822.09 | 813.16 | 804.19 | 795.14 | 0.6219 | 0.5787 | 0.5108 | 0.458 | 0.4131
x1 = 0.7603 | 836.16 | 831.71 | 822.86 | 813.98 | 805 | 0.6175 | 0.5726 | 0.511 | 0.4569 | 0.4109
x1 = 0.8771 | 846.17 | 841.79 | 833 | 824.18 | 815.3 | 0.6139 | 0.5701 | 0.5052 | 0.4567 | 0.4124
x1 = 1 | 856.7 | 852.35 | 843.64 | 834.9 | 826.09 | 0.6162 | 0.5715 | 0.508 | 0.4599 | 0.4298

CCCCCCC [heptane]
[1]
Details | mass density [kg/m3] | viscosity [mPa·s]
298.15 K | 679.9 | 0.4009
303.15 K | 675.65 | 0.375
313.15 K | 667.08 | 0.3373
323.15 K | 658.37 | 0.3074
333.15 K | 649.53 | 0.2793
343.15 K | 640.47 | 0.2541

CN1CCCC1=O [N-methylpyrrolidone]
[1]
Details | mass density [kg/m3] | viscosity [mPa·s]
303.15 K | 1023.47 | 1.554
313.15 K | 1014.55 | 1.332
323.15 K | 1005.66 | 1.16
333.15 K | 996.71 | 1.022
343.15 K | 987.75 | 0.9084
353.15 K | 978.76 | 0.8127

CCCCCCCC [octane]
[1]
Details | mass density [kg/m3] | viscosity [mPa·s]
298.15 K | 699.9 | 0.5206
303.15 K | 695.72 | 0.4837
313.15 K | 687.5 | 0.4306
323.15 K | 679.37 | 0.3864
333.15 K | 671.02 | 0.3495
343.15 K | 662.54 | 0.3139
353.15 K | 653.8 | 0.284

CCCCCCCC [octane] + Cc1ccc(C)cc1
[2], x2 = 0
Details | mass density [kg/m3] | viscosity [mPa·s]
298.15 K | 699.9 | 0.5206
303.15 K | 695.72 | 0.4837
313.15 K | 687.5 | 0.4306
323.15 K | 679.37 | 0.3864
333.15 K | 671.02 | 0.3495
343.15 K | 662.54 | 0.3139
353.15 K | 653.8 | 0.284

CCCCCCC [heptane] + Cc1ccc(C)cc1
[2], x2 = 0
Details | mass density [kg/m3] | viscosity [mPa·s]
298.15 K | 679.9 | 0.4009
303.15 K | 675.65 | 0.375
313.15 K | 667.08 | 0.3373
323.15 K | 658.37 | 0.3074
333.15 K | 649.53 | 0.2793
343.15 K | 640.47 | 0.2541

C1CCCCC1 [cyclohexane] + Cc1ccc(C)cc1
[2], x2 = 0
Details | mass density [kg/m3] | viscosity [mPa·s]
298.15 K | 773.82 | 0.9027
303.15 K | 769.1 | 0.8205
313.15 K | 759.61 | 0.6963
323.15 K | 749.98 | 0.5984
333.15 K | 740.23 | 0.5195
